Assay results from ChEMBL document CHEMBL1201862, “PubChem BioAssay data set” (2004).
The source made the active and inactive calls.

Key:
[1] = target: DNA dC->dU-editing enzyme APOBEC-3A (Homo sapiens, UniProt P31941); assay: Dose Response confirmation of small molecule APOBEC3A DNA Deaminase Inhibitors via a fluorescence-based single-stranded DNA deaminase assay. [Related pubchem assays (depositor defined):AID493011, AID493024]; type: functional
[2] = target: DNA dC->dU-editing enzyme APOBEC-3G (Homo sapiens, UniProt Q9HC16); type: functional;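 note: Dose-response counterscreen measuring inhibition of APOBEC3G DNA deaminase activity, run while confirming APOBEC3A inhibitors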
Insulin-degrading enzyme = target: T1, Insulin-degrading enzyme (Homo sapiens, UniProt P14735); assay: Dose Response: Fluorescence polarization-based cell-based high throughput dose response assay for inhibitors of insulin-degrading enzyme (IDE). [Related pubchem assays: 434962 (Primary screen (IDE inhibitors in singlicate)), 449730 (Counterscreen (Cytotoxicity in triplicate)), 435028 (Confirmation (IDE inhibitors in triplicate)), 434984 (Summary …; type: functional
T1 sequence (P14735 whole entry): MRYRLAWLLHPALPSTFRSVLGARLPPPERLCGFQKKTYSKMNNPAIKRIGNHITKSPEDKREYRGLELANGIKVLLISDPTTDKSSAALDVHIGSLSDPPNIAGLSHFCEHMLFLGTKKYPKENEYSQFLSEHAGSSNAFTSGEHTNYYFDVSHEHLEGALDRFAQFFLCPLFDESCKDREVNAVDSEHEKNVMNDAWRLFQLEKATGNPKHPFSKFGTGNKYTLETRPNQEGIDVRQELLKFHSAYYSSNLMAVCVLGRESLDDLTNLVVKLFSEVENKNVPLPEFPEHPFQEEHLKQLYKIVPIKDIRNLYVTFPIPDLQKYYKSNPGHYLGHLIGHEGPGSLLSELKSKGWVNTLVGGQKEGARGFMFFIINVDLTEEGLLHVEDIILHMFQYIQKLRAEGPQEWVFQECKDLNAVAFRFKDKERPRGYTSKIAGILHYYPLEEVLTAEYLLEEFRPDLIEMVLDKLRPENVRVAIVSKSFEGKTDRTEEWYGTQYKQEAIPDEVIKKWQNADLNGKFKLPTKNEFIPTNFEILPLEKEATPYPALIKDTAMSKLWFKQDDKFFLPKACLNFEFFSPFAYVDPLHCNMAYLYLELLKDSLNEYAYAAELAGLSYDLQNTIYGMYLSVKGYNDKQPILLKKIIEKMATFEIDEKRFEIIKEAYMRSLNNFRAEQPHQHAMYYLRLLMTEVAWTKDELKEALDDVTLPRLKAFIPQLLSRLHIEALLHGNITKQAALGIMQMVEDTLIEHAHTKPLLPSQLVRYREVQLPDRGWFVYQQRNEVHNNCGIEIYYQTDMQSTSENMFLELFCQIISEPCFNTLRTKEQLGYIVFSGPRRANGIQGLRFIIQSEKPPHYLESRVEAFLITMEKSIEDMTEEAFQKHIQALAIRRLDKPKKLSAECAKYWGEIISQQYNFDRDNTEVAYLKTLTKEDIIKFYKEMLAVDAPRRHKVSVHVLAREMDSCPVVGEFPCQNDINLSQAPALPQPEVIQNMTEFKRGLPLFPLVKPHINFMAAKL

[3] = Counterscreen for IDE inhibitors: Luminescence-based cell-based high throughput dose response assay to identify compounds that are cytotoxic to HEK cells. [Related pubchem assays: 434962 (Primary screen (IDE inhibitors in singlicate)), 449730 (Counterscreen (Cytotoxicity in triplicate)), 435028 (Confirmation (IDE inhibitors in triplicate)) …; type: functional; conditions: HEK293
[4] = cytotoxicity in HEK-293T cells, dose response, cytotoxicity control for BCR NF-kB inhibitor project, luminescence, B-cell screen hits (AID 489021); type: functional, cell-based;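 note: HEK-293T cells carrying an NF-kB luciferase reporter; cells exposed to compound for about 14 hours before viability readout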
Large T antigen = Large T antigen (Simian virus 40, UniProt P03070); type: functional, Betapolyomavirus macacae;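 note: Confirmatory-stage PubChem screen for compounds that inhibit SV40 T antigen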
Protein Rev = target: T2, Protein Rev (Human immunodeficiency virus type 1 group M subtype B (isolate WMJ22)(HIV-1), UniProt P05866); assay: HIV-1 Rev-RRE RNA binding disruptors, dose response, biochemical, protein-RNA interaction (AID 842); design: species or system Human immunodeficiency virus 1
T2 sequence (P05866 whole entry): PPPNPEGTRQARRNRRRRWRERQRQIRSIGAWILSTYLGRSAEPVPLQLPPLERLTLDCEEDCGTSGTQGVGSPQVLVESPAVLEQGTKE

[5] = target: Eukaryotic translation initiation factor 4E (Mus musculus, UniProt P63073); assay: eIF4E–eIF4G protein interaction inhibitors, dose response, biochemical, TR-FRET (AID 855); type: functional;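 note: potency for disrupting eIF4E binding to eIF4GI seen as loss of FRET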
Coagulation factor XII = target: T3, Coagulation factor XII (Homo sapiens, UniProt P00748); assay: FXIIa inhibitor potency, concentration-response, biochemical (AID 716); type: functional
T3 sequence (P00748 whole entry): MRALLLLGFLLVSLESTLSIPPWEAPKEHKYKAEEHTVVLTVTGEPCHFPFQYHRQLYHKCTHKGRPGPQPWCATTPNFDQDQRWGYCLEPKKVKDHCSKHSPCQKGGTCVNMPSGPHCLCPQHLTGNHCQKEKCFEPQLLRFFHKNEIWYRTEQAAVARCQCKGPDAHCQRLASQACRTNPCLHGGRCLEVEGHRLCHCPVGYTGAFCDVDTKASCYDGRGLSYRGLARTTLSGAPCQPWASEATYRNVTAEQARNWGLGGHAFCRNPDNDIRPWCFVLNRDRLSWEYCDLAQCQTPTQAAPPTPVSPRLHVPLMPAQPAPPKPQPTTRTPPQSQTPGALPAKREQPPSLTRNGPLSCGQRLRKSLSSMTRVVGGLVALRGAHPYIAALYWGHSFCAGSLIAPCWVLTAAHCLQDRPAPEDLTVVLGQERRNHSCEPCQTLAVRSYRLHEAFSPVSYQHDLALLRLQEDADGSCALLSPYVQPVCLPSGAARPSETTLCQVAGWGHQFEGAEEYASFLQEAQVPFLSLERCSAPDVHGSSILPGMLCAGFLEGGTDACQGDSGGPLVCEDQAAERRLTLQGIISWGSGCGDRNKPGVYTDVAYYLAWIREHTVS

Aminopeptidase N = target: T4, Aminopeptidase N (Plasmodium falciparum FcB1/Columbia, UniProt O96935); assay: P. falciparum M1AAP inhibitors, biochemical, fluorogenic H-Leu-NHMec substrate, 1536-well (AID 1445); design: species or system Plasmodium falciparum 3D7, 3D7
T4 sequence (O96935 whole entry): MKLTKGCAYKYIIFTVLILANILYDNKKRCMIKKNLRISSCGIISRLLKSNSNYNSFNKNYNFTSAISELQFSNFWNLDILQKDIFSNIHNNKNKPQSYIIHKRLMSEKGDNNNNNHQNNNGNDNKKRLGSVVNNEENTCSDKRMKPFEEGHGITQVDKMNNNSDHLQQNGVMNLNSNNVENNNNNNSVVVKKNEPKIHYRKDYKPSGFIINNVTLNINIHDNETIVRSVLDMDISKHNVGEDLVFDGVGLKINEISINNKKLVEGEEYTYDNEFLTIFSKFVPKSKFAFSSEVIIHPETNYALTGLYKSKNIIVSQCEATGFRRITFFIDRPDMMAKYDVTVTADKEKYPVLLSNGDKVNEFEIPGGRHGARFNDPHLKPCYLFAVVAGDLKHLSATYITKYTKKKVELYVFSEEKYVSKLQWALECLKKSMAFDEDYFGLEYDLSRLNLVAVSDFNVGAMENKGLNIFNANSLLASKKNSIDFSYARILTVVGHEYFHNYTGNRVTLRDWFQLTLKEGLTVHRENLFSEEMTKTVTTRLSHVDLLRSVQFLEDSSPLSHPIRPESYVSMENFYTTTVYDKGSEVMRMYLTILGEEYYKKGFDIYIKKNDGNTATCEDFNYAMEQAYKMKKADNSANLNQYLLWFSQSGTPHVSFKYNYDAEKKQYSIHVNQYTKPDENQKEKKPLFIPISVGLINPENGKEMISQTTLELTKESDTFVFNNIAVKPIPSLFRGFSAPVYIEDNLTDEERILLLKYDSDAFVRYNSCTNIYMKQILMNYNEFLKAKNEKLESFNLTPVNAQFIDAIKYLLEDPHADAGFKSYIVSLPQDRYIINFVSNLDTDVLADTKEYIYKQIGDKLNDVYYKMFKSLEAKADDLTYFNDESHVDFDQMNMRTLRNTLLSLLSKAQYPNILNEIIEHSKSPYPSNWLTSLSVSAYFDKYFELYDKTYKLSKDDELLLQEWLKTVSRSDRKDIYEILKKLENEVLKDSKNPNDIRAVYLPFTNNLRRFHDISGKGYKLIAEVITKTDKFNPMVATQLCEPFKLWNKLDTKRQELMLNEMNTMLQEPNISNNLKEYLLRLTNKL

[6] = cytotoxicity in HEK-293T cells, dose response, cytotoxicity control for TCR NF-kB inhibitor project, luminescence, T-cell screen hits (AID 489026); type: functional, cell-based;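 note: cells exposed to compound about 14 hours before the viability readout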
HEK293 [7] = assay: cells; conditions: Homo sapiens
HEK293 [8] = assay: cells; type: functional, cell-based; conditions: Homo sapiens
[9] = target: T5, Nucleotide-binding oligomerization domain-containing protein 1 (Homo sapiens, UniProt Q9Y239); assay: NOD1 signaling inhibitors, SAR follow-up, revised (AID 2333); type: functional
T5 sequence (Q9Y239 whole entry): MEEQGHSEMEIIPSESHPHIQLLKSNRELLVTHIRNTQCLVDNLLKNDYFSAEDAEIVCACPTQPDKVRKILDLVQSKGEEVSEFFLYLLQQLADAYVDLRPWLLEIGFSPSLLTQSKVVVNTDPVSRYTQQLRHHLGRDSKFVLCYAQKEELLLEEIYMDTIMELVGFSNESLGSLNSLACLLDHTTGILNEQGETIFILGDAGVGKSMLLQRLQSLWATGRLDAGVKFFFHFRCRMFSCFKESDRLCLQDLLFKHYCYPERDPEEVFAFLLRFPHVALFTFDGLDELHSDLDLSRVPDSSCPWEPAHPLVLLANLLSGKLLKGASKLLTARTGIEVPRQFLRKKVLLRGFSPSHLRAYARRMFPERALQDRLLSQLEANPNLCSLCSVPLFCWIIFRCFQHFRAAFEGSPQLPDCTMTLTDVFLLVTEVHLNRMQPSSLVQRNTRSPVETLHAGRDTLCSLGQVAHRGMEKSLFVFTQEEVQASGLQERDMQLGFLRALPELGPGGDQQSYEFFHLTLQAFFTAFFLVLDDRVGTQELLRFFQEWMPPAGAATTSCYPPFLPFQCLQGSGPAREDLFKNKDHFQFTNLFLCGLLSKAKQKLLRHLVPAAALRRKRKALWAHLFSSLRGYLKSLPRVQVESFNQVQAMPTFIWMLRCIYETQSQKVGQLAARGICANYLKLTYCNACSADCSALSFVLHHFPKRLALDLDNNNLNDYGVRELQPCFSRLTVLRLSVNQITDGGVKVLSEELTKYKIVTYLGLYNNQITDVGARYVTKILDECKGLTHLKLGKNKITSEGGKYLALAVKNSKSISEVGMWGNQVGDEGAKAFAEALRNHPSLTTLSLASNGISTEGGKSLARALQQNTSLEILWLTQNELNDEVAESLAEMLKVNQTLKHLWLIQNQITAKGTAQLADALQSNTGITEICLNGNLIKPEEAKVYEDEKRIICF

HEK293 [10] = assay: cells; type: functional, cell-based; conditions: Homo sapiens; remark: listed apart in the source
HEK293 [11] = assay: NOD2 signaling inhibitors in MDP-stimulated cells, cell-based, uHTS, luminescence (AID 2001); type: functional; conditions: Homo sapiens
Tumor necrosis factor = Tumor necrosis factor (Homo sapiens, UniProt P01375); assay: TNFa-triggered NF-kB activation inhibitors, SAR follow-up, cell-based, revised (AID 2337); type: functional
HEK293 [12] = assay: NOD1 signaling inhibitors, primary screen, cell-based, luminescence, uHTS (AID 1578); type: functional; conditions: Homo sapiens
[13] = Luminescence Cell-Based Dose Retest to Confirm Inhibitors of Cancer Stem Cells. [Related pubchem assays (depositor defined):AID2717, AID2721]; type: functional; conditions: Homo sapiens
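Throughout, for AC50: cells exposed to compound for roughly 70 hours or longer before luminescence read.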

Sequence of DNA dC->dU-editing enzyme APOBEC-3A (P31941 whole entry): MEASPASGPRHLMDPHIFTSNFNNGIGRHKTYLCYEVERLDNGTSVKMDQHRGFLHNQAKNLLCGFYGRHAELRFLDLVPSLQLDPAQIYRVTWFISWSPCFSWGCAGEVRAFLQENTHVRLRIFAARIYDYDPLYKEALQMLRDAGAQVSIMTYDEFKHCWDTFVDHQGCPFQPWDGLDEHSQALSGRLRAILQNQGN
Sequence of DNA dC->dU-editing enzyme APOBEC-3G (Q9HC16 whole entry): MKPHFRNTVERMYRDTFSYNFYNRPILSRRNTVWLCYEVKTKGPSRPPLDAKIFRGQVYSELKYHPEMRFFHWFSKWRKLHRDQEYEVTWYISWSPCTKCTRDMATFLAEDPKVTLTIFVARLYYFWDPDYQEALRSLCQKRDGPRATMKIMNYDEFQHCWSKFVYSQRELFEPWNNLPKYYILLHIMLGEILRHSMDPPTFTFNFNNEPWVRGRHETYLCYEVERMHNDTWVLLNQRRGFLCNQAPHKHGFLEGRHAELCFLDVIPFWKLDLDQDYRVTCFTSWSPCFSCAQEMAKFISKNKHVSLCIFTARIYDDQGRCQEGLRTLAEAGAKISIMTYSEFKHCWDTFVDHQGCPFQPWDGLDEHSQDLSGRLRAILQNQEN
Sequence of Tumor necrosis factor (P01375 whole entry): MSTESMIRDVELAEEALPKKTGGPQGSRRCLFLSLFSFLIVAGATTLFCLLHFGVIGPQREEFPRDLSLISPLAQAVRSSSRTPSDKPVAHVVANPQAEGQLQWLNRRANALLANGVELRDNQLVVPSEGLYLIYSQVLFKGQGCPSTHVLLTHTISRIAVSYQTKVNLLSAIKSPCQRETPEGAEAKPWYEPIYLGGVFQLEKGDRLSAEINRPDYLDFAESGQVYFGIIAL
Sequence of Large T antigen (P03070 whole entry): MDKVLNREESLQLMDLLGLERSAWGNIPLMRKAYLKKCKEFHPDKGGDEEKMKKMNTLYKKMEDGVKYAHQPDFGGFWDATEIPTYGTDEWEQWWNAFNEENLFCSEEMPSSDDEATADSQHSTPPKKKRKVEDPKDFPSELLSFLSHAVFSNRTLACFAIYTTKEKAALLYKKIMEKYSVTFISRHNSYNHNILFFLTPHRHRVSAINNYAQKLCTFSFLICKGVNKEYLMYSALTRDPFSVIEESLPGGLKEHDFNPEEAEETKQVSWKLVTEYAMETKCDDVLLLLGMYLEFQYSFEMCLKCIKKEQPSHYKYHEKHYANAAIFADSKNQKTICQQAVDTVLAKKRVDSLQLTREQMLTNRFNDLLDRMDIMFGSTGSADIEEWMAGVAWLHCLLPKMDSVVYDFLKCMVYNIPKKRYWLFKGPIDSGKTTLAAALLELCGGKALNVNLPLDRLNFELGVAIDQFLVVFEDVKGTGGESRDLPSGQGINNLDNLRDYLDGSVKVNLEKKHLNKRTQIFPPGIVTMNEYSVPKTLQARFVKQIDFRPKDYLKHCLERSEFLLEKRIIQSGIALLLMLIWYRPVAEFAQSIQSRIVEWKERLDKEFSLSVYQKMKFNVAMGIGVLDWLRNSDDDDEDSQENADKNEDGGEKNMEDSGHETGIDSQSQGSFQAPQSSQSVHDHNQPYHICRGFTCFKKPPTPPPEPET
Sequence of Eukaryotic translation initiation factor 4E (P63073 whole entry): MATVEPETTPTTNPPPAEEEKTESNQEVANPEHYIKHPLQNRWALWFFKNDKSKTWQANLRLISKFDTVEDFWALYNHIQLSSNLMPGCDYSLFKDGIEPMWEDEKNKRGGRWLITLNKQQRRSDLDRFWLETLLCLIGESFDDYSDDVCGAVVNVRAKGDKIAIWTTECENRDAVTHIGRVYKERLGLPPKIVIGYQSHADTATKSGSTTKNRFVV

COc1cc(C(N)=O)cc(Br)c1OC
IC50 [1]: 9.8 µM (active) | IC50 [2]: 12.2 µM (active)

CCc1sc(C(=O)Nc2cccc(-n3cnnn3)c2)cc1C
IC50 (Insulin-degrading enzyme): 17.3 µM (not active) | IC50 [3]: 20.7 µM (not active) | IC50 [4]: > 80 µM (inactive)

CCOc1cc(-c2ccc(N)c(OCC)c2)ccc1N
IC50 (Large T antigen): 12.3 µM (active) | IC50 (Protein Rev): 2.47 µM (active)

O=C(NCc1ccc2c(c1)OCO2)c1ccc2c(c1)OCCO2
IC50 [5]: 50 µM (inactive)

C=CCSc1nnc(Cc2cc(O)nc(O)n2)n1-c1cc(C)ccc1C
IC50 (Coagulation factor XII): > 50 µM (inactive)

COc1ccc(S(=O)(=O)N2CCC(C(=O)NCc3ccccc3)CC2)cc1OC
IC50 (Aminopeptidase N): 68.4 µM (active)

O=S(=O)(c1ccc(SCc2cccc(Cl)c2)nc1)N1CCCC1
IC50 (Insulin-degrading enzyme): > 55.9 µM (not active) | IC50 [3]: 27.1 µM (not active)

CC1CCC(C(C)C)C(OCC(O)C[N+]2(C)CCCCC2)C1 (centres undefined)
IC50 [1]: 2.6 µM (active) | IC50 [2]: 3.66 µM (active)

CC(=O)N1c2ccc(S(=O)(=O)N3CCC(C(=O)Nc4cccc(C)n4)CC3)cc2CC1C (centres undefined)
IC50 [6]: > 80 µM (inactive) | IC50 (HEK293 [7]): > 20 µM (inactive) | IC50 (HEK293 [8]): > 20 µM (inactive) | IC50 [9]: 4.8 µM (active) | IC50 (HEK293 [10]): 8.99 µM (active) | IC50 (HEK293 [11]): 12.4 µM (inactive) | IC50 (Tumor necrosis factor): 6.02 µM (active) | EC50 (HEK293 [12]): 2.79 µM (active)

NC(=O)c1sc(-c2ccsc2)cc1NS(=O)(=O)c1ccc(C(F)(F)F)cc1
AC50 [13]: 11.7 µM (active) | IC50 (Aminopeptidase N): 22.1 µM (active)

CC(=O)c1cccc(NS(=O)(=O)c2c(C)noc2C)c1
IC50 (Coagulation factor XII): > 50 µM (inactive)

NC(=O)c1ccc(NC(=O)c2ccccc2S(=O)(=O)c2ccccc2[N+](=O)[O-])cc1
IC50 (Aminopeptidase N): 102 µM (active)

CC(C)(C)c1ccc(C(=O)ONC(=N)c2cccc([N+](=O)[O-])c2)cc1
IC50 [9]: > 20 µM (inactive) | IC50 (Tumor necrosis factor): > 20 µM (inactive)

CN1CCN(C(=O)c2ccc3c(=O)n(Cc4ccc(Cl)cc4)c(=S)[nH]c3c2)CC1
IC50 (Coagulation factor XII): > 50 µM (inactive)
